Measured values from patent EP0821955B1 (priority 1996, dated 1998).

Assays:
[1] = target: muscarinic cholinergic receptors; assay: ^3H-oxotremorine-M binding study; conditions: inhibition of the binding of ^3H-oxotremorine-M; read-out: inhibition constant (Ki)
m4 receptors = m4 receptors (Homo sapiens, UniProt P08173); format: cell-based; conditions: Chinese Hamster Ovary (CHO) m4 cells treated with pertussis toxin
Sequence of m4 receptors (P08173 whole entry): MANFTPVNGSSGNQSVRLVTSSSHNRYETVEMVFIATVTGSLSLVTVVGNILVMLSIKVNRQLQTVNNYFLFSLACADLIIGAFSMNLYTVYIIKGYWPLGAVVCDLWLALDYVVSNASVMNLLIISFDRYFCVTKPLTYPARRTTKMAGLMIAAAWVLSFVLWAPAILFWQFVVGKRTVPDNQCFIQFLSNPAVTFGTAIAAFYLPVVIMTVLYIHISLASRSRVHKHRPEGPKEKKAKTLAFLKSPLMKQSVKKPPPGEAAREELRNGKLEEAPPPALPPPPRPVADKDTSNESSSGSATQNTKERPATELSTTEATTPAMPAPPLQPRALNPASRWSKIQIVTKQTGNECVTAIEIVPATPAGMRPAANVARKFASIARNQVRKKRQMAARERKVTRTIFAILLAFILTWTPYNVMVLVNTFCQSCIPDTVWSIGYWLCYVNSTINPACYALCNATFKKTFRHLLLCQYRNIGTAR

CCCCCCOc1nsnc1C1=CCCN(C)C1 [xanomeline, 3-(4-hexyloxy-1,2,5-thiadiazol-3-yl)-1,2,5,6-tetrahydro-1-methylpyridine]
Ki [1]: 2 nM | formation of cAMP (m4 receptors): efficaciously and potently stimulated the formation of cAMP
